The values that follow are results of earlier work, collected in patent US10076117B2, “Pesticide formulation comprising a water soluble active ingredient and a penetration enhancer and use of the same” (ROTAM AGROCHEM INTERNATIONAL COMPANY LIMITED, priority 2014, dated 2018).

For the data set the following is noted: water.

Regarding `COP(=O)(NC(C)=O)SC` (stereo not shown) [acephate], the solubility is listed as 650 g in 1 L of water.
